This note sets out measurements from ChEMBL document CHEMBL4800728, “Data for DCP probe JNJ-54119936” (2021).

Test [1] addresses Nuclear receptor ROR-beta (Homo sapiens) (UniProt Q92753). The test can be described thus: ThermoFluor Binding Assay (RORB). Background: DSF heats the sample and reads unfolding from a dye or from intrinsic fluorescence.
The target in test [2] is Nuclear receptor ROR-alpha (Homo sapiens) (UniProt P35398). The test can be described thus: ThermoFluor Binding Assay (RORA).
Sequence of Nuclear receptor ROR-alpha (Homo sapiens) (P35398 whole entry): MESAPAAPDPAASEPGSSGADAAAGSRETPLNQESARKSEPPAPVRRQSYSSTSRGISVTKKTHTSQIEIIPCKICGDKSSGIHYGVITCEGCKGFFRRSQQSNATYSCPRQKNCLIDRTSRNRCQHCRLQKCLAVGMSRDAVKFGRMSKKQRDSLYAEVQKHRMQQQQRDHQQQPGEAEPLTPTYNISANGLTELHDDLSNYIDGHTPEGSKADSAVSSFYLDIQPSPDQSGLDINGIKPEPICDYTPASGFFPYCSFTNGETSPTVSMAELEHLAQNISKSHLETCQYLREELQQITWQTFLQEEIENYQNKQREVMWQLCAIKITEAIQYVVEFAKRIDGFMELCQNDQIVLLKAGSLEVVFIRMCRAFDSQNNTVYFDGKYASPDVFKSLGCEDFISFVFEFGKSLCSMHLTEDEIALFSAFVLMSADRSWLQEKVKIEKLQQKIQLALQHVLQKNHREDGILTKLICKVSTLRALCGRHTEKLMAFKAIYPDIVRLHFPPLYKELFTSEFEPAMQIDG

Sequence of Nuclear receptor ROR-beta (Homo sapiens) (Q92753 whole entry): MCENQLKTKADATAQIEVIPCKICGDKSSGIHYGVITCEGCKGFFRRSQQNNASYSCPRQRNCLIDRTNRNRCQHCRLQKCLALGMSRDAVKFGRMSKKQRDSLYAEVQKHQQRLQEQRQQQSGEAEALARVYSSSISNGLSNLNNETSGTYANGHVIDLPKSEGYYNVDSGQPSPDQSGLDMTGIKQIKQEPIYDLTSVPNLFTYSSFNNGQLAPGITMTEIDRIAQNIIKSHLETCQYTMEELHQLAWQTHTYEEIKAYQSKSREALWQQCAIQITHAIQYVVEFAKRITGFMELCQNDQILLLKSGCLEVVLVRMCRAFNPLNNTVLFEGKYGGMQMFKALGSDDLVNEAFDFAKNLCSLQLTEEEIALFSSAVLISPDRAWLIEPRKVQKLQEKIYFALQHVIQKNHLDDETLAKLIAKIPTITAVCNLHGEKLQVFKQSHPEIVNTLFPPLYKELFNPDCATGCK

Consider `COc1nc2ccc([C@@](O)(c3ccc(Cl)cc3)c3cncn3C)cc2c(Cl)c1Cc1ccc(-n2cccn2)cc1`, for which the qKD in test [1] was 40 µM; in test [2] it was 16.8 µM.
